Test results published in article PMC5267425, “Identification of small molecule modulators of HIV-1 Tat and Rev protein accumulation” (Retrovirology, 2017).
“And” between values parts separate entries of the source, which are not always exact repeats. Equal entries are not always repeated.

Tested on: cellular gene expression in HeLa rtTA HIV∆Mls cells
Settings: 9147791-treated cells, replicates

Cc1cc(NCc2cccnc2)n2ncc(-c3ccc(Cl)cc3)c2n1 [Compound 791, 3-(4-chlorophenyl)-5-methyl-N-(3-pyridinylmethyl)pyrazolo[1,5-a]pyrimidin-7-amine]
ACTN1 expression level: 70.54 and 65.87
ADI1 expression level: 21.28 and 20.50
AGPAT2 expression level: 26.74 and 28.83
ALDOC expression level: 1.08 and 1.02
ANXA5 expression level: 191.66 and 185.16
ANXA6 expression level: 69.55 and 59.50
AP2M1 expression level: 238.02 and 237.30
APOBEC3B expression level: 8.21 and 6.81
ARF1 expression level: 151.10 and 145.27
ARHGAP11A expression level: 26.24 and 25.64
ARPC5 expression level: 71.19 and 65.59
ATP6V0A1 expression level: 15.83 and 16.80
ATP8B1 expression level: 0.78 and 0.65
B3GNT1 expression level: 9.03 and 9.24
BAT3 expression level: 82.22 and 79.10
BCOR expression level: 21.09 and 21.93
BCORL1 expression level: 5.39 and 5.54
BHLHB9 expression level: 1.05 and 1.03
BMPR1B expression level: 0.73 and 0.81
BST2 expression level: 245.44 and 203.71
C1orf115 expression level: 6.22 and 6.65
C3orf59 expression level: 1.02 and 1.00
C5orf13 expression level: 10.12 and 9.25
C5orf15 expression level: 25.66 and 24.81
C6orf145 expression level: 25.69 and 26.94
C9orf3 expression level: 5.07 and 4.02
C9orf163 expression level: 0.72 and 0.74
C10orf76 expression level: 6.17 and 6.53
C10orf114 expression level: 6.12 and 7.21
C14orf147 expression level: 24.04 and 21.03
C19orf28 expression level: 20.85 and 20.05
C20orf29 expression level: 8.83 and 7.98
CALD1 expression level: 28.16 and 24.92
CAP2 expression level: 6.21 and 6.88
CAPN1 expression level: 47.66 and 45.36
CASC5 expression level: 8.52 and 8.14
CAV2 expression level: 13.23 and 12.84
CCDC85C expression level: 13.99 and 13.05
CCDC99 expression level: 61.28 and 55.39
CCDC102A expression level: 2.18 and 1.83
CCDC150 expression level: 3.18 and 3.23
CD276 expression level: 44.64 and 46.66
CDC42EP3 expression level: 3.11 and 2.92
CDK1 expression level: 61.18 and 65.43
CDKL1 expression level: 6.48 and 6.73
CDKN2C expression level: 30.46 and 26.27
CGN expression level: 1.21 and 1.38
CHN1 expression level: 6.56 and 6.26
CLPTM1L expression level: 137.08 and 134.64
CNN2 expression level: 47.78 and 46.33
CNNM3 expression level: 10.75 and 11.30
COMMD1 expression level: 12.70 and 12.99
CRTC3 expression level: 31.32 and 28.75
CSRP2 expression level: 30.49 and 33.02
CTNND1 expression level: 21.98 and 23.56
CTTNBP2 expression level: 2.16 and 2.53
CYTH3 expression level: 13.78 and 13.70
DAB2 expression level: 15.91 and 16.84
DAG1 expression level: 27.42 and 30.65
DBF4B expression level: 6.80 and 6.36
DCAF6 expression level: 12.78 and 12.38
DDR1 expression level: 23.20 and 20.76
DNMT3L expression level: 1.04 and 0.90
DOCK1 expression level: 11.83 and 12.65
DOCK8 expression level: 1.41 and 1.38
DUSP1 expression level: 278.63 and 269.45
DUSP8 expression level: 0.79 and 0.93
ECT2 expression level: 33.55 and 30.42
EMP2 expression level: 8.82 and 9.39
EPB41L4A expression level: 4.70 and 5.12
ERCC2 expression level: 21.00 and 19.80
ESAM expression level: 3.07 and 3.33
ESYT2 expression level: 32.11 and 32.37
F2R expression level: 28.45 and 29.47
FAM13B expression level: 9.53 and 8.84
FAM83D expression level: 34.40 and 31.73
FAM127A expression level: 137.05 and 133.03
FARP1 expression level: 32.38 and 34.32
FBXL2 expression level: 3.80 and 3.59
FDFT1 expression level: 43.70 and 46.85
FGFR3 expression level: 5.45 and 6.20
FSTL1 expression level: 31.24 and 29.61
FUBP1 expression level: 41.68 and 44.21
FZR1 expression level: 11.76 and 10.90
GALNT2 expression level: 52.29 and 59.07
GATSL1 expression level: 3.56 and 3.66
GLCCI1 expression level: 5.50 and 5.98
GLI2 expression level: 1.61 and 1.91
GNG10 expression level: 35.68 and 34.10
GPR176 expression level: 6.89 and 6.58
GTF3C1 expression level: 29.06 and 29.38
H3F3A expression level: 242.14 and 260.31
HACL1 expression level: 8.70 and 8.40
HDAC1 expression level: 74.08 and 73.05
HEG1 expression level: 6.29 and 6.77
HIST1H3B expression level: 1.94 and 1.96
HMGB3 expression level: 28.50 and 26.71
HMGN3 expression level: 74.54 and 69.90
HNRNPH2 expression level: 55.22 and 51.55
HSPB8 expression level: 24.33 and 26.14
ICK expression level: 4.87 and 5.19
ID3 expression level: 119.77 and 102.82
IDH2 expression level: 17.89 and 18.64
IDI1 expression level: 13.51 and 16.55
IKBIP expression level: 8.02 and 8.05
INCENP expression level: 24.44 and 25.00
INO80C expression level: 1.90 and 1.87
JUB expression level: 13.13 and 12.45
KANK2 expression level: 20.68 and 20.72
KHDRBS1 expression level: 80.26 and 74.92
KIF3B expression level: 14.85 and 14.03
KIF5C expression level: 0.60 and 0.55
KIF11 expression level: 24.10 and 21.47
KIF18B expression level: 12.16 and 12.54
KIF20B expression level: 12.24 and 11.00
KIFC1 expression level: 47.71 and 45.30
KITLG expression level: 11.50 and 12.57
KLF9 expression level: 12.26 and 10.78
KLHDC3 expression level: 56.38 and 53.87
KPNA2 expression level: 179.32 and 162.46
LAPTM4B expression level: 71.83 and 68.84
LMO7 expression level: 19.87 and 20.69
LRRC16A expression level: 6.80 and 7.88
MAML2 expression level: 2.44 and 2.29
MANF expression level: 42.22 and 45.27
MAP3K14 expression level: 8.59 and 8.30
